Legend:
[1] = target: T1, FapR-fapO complex (Bacillus subtilis, UniProt O34835); experiment: Electrophoretic mobility shift assay of FapR and fapO; format: binding, B. subtilis; conditions: titrated against FapR, 40 bp fapO fragment; read-out: concentration at which half of the DNA would be bound
T1 construct: made in house; host or cells: E. coli BL21(DE3)
Method: Next, the cell-free FapR biosensor was assayed with each α-carboxyacyl-CoA at a fixed concentration (150 μM). […] This robust activity of pgmCoA is due in part to the increased rigidity of the alkyne side-chain or additional interactions of the alkynyl […] with the FapR ligand-binding site, with the […] side-chain of the nearby Phe99 (FIG. 5A). […] To provide further evidence that FapR is de-repressed by derivatives of mCoA, FapR was tested in vitro for DNA-binding and release by electrophoretic mobility shift assay (EMSA) in the presence of mCoA or mmCoA. Using purified wild-type FapR protein, EMSA was run with a 40 bp DNA fragment containing the fapO binding site (FIG. 7).
Electrophoretic mobility shift assay. The fapO oligonucleotides 5′-[…]-3′ (SEQ ID NO:30) and 5′-[…]-3′ (SEQ ID NO:31) were annealed per standard procedure. Briefly, the two oligos were added to a final concentration of 10 μM each in annealing buffer (19 mM Tris, pH 7.5, 50 mM NaCl, 1 mM EDTA) and heated to 95° C. for 2 minutes before cooling to 25° C. at a rate of −1° C. min^−1. […] Reactions were then analyzed by electrophoresis on a 6% PAGE gel at 220 V. The gel was stained with SYBR Green I and imaged on a Typhoon FLA 7000.

[2] = target: T2, FapR (Bacillus subtilis, UniProt O34835); experiment: Cell-free transcription-translation (TX-TL) FapR/T7-fapO-sfGFP assay; format: biochemical, B. subtilis; design: made in house; host or cells: E. coli BL21(DE3); conditions: for effector of FapR as judged by cell-free fluorescence / fluorescence response (de-repression of FapR/T7-fapO-sfGFP) compared among thioesters: each thioester at fixed concentration (150 μM)
Source text: To this end, the reporter module of the FapR 2H8 biosensor was cloned into pET28a, replacing the typical lacO site controlling the T7 promoter with a single fapO binding site upstream of the sfGFP gene, producing pET28a-T7-fapO-sfGFP (FIG. 5C). Each α-carboxyacyl-CoA was generated enzymatically from the corresponding malonic acid and CoA using the wild-type malonyl-CoA synthetase MatB or the engineered MatB variant, T207G/M306I. Next, the response of the cell-free TX-TL biosensor assay was evaluated by using various concentrations of MatB-generated native effector, mCoA, along with a fixed amount of purified FapR and T7-fapO-sfGFP. […] In addition, the maximum fluorescence signal was ˜15-fold greater than that in the absence of mCoA. Furthermore, to account for potential inhibition of the cell-free biosensor by the MatB reaction mixture, the FapR system was also assayed using a commercial standard of mCoA.
Dose-response analysis of the cell-free TX-TL FapR assay. A premixed solution for cell-free transcription-translation reactions was purchased from New England Biolabs (PURExpress In Vitro Protein Synthesis Kit). To a PCR tube on ice were added (in the order shown): 4 μL Solution A, 3 μL Solution B, 2.5 μM FapR, 250 nM T7-fapO-sfGFP and 0-150 μM of MatB-generated or commercial mCoA in a total volume of 10 μL. In parallel, control reactions in the absence of thioester were assembled by using boiled MatB in the presence of malonic acid. The reaction was incubated for 16 h at 37° C. and then diluted with PBS buffer to give a final total volume of 50 μL.
Cell-Free Characterization of FapR Promiscuity. A commercial kit for cell-free transcription-translation reactions was purchased from New England Biolabs (PURExpress In Vitro Protein Synthesis Kit). To a PCR tube on ice were added (in the order shown): 4 μL Solution A, 3 μL Solution B, 2.5 μM FapR, 250 nM T7-fapO-sfGFP and 150 μM of MatB-generated acyl-CoA or mmSNAC in a total volume of 10 μL (FIG. 9). In parallel, control reactions in the absence of thioester were assembled by using boiled MatB. The reaction was incubated for 16 h at 37° C. and then diluted with PBS buffer to give a final total volume of 50 μL.
Target sequence in this assay (O34835 other isoform, or with tags, fused parts or gaps): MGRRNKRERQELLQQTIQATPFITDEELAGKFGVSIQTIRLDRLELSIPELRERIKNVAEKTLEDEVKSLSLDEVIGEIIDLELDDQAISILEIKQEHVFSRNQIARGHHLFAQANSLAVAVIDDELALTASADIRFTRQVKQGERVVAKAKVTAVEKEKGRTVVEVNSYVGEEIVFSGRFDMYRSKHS

[3] = target: T2, FapR; conditions: previously reported; cited from earlier work
Target sequence in this assay (O34835 whole entry): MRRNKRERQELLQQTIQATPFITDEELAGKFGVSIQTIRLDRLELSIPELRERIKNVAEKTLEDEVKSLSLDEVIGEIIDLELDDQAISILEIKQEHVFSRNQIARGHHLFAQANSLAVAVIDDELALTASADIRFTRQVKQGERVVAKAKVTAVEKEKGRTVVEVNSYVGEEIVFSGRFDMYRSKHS

T1 sequence (O34835 other isoform, or with tags, fused parts or gaps): as the sequence (O34835 other isoform, or with tags, fused parts or gaps) above

Row | Structure (SMILES) | effector of FapR as judged by cell-free fluorescence ([2]; FIG. 5D) | fluorescence response (de-repression of FapR/T7-fapO-sfGFP) compared among thioesters ([2]; FIG. 5D) | effector status for FapR [3] | other results
1 | CC(C)(COP(=O)(O)OP(=O)(O)OC[C@H]1O[C@@H](n2cnc3c(N)ncnc32)[C@H](O)[C@@H]1OP(=O)(O)O)[C@@H](O)C(=O)NCCC(=O)NCCSC(=O)CC(=O)O [mCoA, malonyl-CoA] |  |  |  | EC50 [1]: 200 µM; maximum fluorescence signal relative to absence of mCoA ([2]; 0-150 μM mCoA): ~15 fold; concentration range with linear fluorescence output of the cell-free biosensor ([2]; MatB-generated mCoA, 2.5 μM FapR, 250 nM T7-fapO-sfGFP): up to 150 μM; fluorescence output, MatB-generated versus commercial mCoA ([2]; dose-response, FIG. 6): no significant difference
2 | CC(=O)NCCSC(=O)C(C)C(=O)O (stereo not drawn) [mmSNAC] | determined to be an effector |  |  | de-repression activity relative to the corresponding CoA thioester ([2]; 150 μM, fluorescence assay, FIG. 5D): ~50%
3 | CCC(C(=O)O)C(=O)SCCNC(=O)CCNC(=O)[C@H](O)C(C)(C)COP(=O)(O)OP(=O)(O)OC[C@H]1O[C@@H](n2cnc3c(N)ncnc32)[C@H](O)[C@@H]1OP(=O)(O)O (stereo partly drawn) [emCoA, ethylmalonyl-CoA] | identified as effectors | poorest effectors |  | 
4 | CC(C(=O)O)C(=O)SCCNC(=O)CCNC(=O)[C@H](O)C(C)(C)COP(=O)(O)OP(=O)(O)OC[C@H]1O[C@@H](n2cnc3c(N)ncnc32)[C@H](O)[C@@H]1OP(=O)(O)O (stereo partly drawn) [mmCoA, methylmalonyl-CoA] |  | statistically indistinguishable from that with the native ligand, mCoA |  | 
5 | CCCC(=O)SCCNC(=O)CCNC(=O)[C@H](O)C(C)(C)COP(=O)(O)OP(=O)(O)OC[C@H]1O[C@@H](n2cnc3c(N)ncnc32)[C@H](O)[C@@H]1OP(=O)(O)O [butyryl-CoA] |  |  | non-effectors | 
6 | CCC(=O)SCCNC(=O)CCNC(=O)[C@H](O)C(C)(C)COP(=O)(O)OP(=O)(O)OC[C@H]1O[C@@H](n2cnc3c(N)ncnc32)[C@H](O)[C@@H]1OP(=O)(O)O [propionyl-CoA] | de-repression was not observed |  | non-effectors | 
7 | CC(C)(COP(=O)(O)OP(=O)(O)OC[C@H]1O[C@@H](n2cnc3c(N)ncnc32)[C@H](O)[C@@H]1OP(=O)(O)O)[C@@H](O)C(=O)NCCC(=O)NCCSC(=O)CCC(=O)O [succinyl-CoA] |  |  | non-effectors | 
8 | C#CCC(C(=O)O)C(=O)SCCNC(=O)CCNC(=O)[C@H](O)C(C)(C)COP(=O)(O)OP(=O)(O)OC[C@H]1O[C@@H](n2cnc3c(N)ncnc32)[C@H](O)[C@@H]1OP(=O)(O)O (stereo partly drawn) [pgmCoA, propargylmalonyl-CoA] | identified as effectors | indistinguishable from that of mCoA and mmCoA |  | 
9 | CCCCC(C(=O)O)C(=O)SCCNC(=O)CCNC(=O)[C@H](O)C(C)(C)COP(=O)(O)OP(=O)(O)OC[C@H]1O[C@@H](n2cnc3c(N)ncnc32)[C@H](O)[C@@H]1OP(=O)(O)O (stereo partly drawn) [bmCoA, butylmalonyl-CoA] | identified as effectors | poorest effectors |  | 
10 | CC(=O)SCCNC(=O)CCNC(=O)[C@H](O)C(C)(C)COP(=O)(O)OP(=O)(O)OC[C@H]1O[C@@H](n2cnc3c(N)ncnc32)[C@H](O)[C@@H]1OP(=O)(O)O [acetyl-CoA] |  |  | non-effectors | 
